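Method: 48-hour compound exposure of cells in 96-well plates, five concentrations, linear interpolation of endpoints. Abbreviation: GI50, concentration required for 50% inhibition of growth.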 Calls of active or inactive are those of the source. Rule as the data show it: active = GI50 up to about 1.1 µM and inactive = higher.
What was measured:
Assay in all cases: DTP human tumour cell line panel, 48 h
Hs-578T = test system: Hs-578T
SNB-19 = test system: SNB-19
ACHN = test system: ACHN
SNB-75 = test system: SNB-75
SF-295 = test system: SF-295
A498 = test system: A498
MDA-MB-231 = test system: MDA-MB-231
SR = test system: SR
SF-539 = test system: SF-539
SK-MEL-5 = test system: SK-MEL-5
HCT-116 = test system: HCT-116
MCF7 = test system: MCF7
HOP-62 = test system: HOP-62
CAKI-1 = test system: CAKI-1
NCI-H460 = test system: NCI-H460
SW-620 = test system: SW-620
UO-31 = test system: UO-31
HCT-15 = test system: HCT-15
SN12C = test system: SN12C
HCC 2998 = test system: HCC 2998

| SMILES | GI50 (Hs-578T) | GI50 (SNB-19) | GI50 (ACHN) | GI50 (SNB-75) | GI50 (SF-295) | GI50 (A498) | GI50 (MDA-MB-231) | GI50 (SR) | GI50 (SF-539) | GI50 (SK-MEL-5) | GI50 (HCT-116) | GI50 (MCF7) | GI50 (HOP-62) | GI50 (CAKI-1) | GI50 (NCI-H460) | GI50 (SW-620) | GI50 (UO-31) | GI50 (HCT-15) [µM] | GI50 (SN12C) | GI50 (HCC 2998) |
| --- | --- | --- | --- | --- | --- | --- | --- | --- | --- | --- | --- | --- | --- | --- | --- | --- | --- | --- | --- | --- |
| O=c1oc2cc(/N=C/c3ccc4c(c3)OCO4)ccc2c2ccccc12 | > 100 µM (inactive) | 50.2 µM (inactive) | 58.1 µM (inactive) | 15 µM (inactive) | 58.6 µM (inactive) | 49.8 µM (inactive) | 77.4 µM (inactive) | 25.5 µM (inactive) | 47 µM (inactive) | 76.6 µM (inactive) | 46.3 µM (inactive) | 54.5 µM (inactive) | 36 µM (inactive) | 65 µM (inactive) | 39.8 µM (inactive) | 97.9 µM (inactive) | 70 µM (inactive) | > 100 | 51.9 µM (inactive) | – |
| CCOC(=O)[C@@H]1OC(c2ccccc2)O[C@H]1C(=O)OCC | > 100 µM (inactive) | > 100 µM (inactive) | > 100 µM (inactive) | > 100 µM (inactive) | > 100 µM (inactive) | > 100 µM (inactive) | > 100 µM (inactive) | > 100 µM (inactive) | – | > 100 µM (inactive) | > 100 µM (inactive) | > 100 µM (inactive) | > 100 µM (inactive) | – | – | > 100 µM (inactive) | > 100 µM (inactive) | > 100 | > 100 µM (inactive) | – |
| Cc1ccc(/C=C2\NC(=S)N(CN3CCCCC3)C2=O)cc1 | 41.4 µM (inactive) | 55.5 µM (inactive) | 43.2 µM (inactive) | > 100 µM (inactive) | 44.6 µM (inactive) | 41.3 µM (inactive) | > 100 µM (inactive) | 83.6 µM (inactive) | – | 33.3 µM (inactive) | 36.6 µM (inactive) | 28.4 µM (inactive) | > 100 µM (inactive) | – | – | 28.9 µM (inactive) | 63.1 µM (inactive) | 36.1 | 63.7 µM (inactive) | – |
| N=C(N)c1ccc(/N=N\c2c(O)ccc3cc4c(/N=N\c5ccc(C(=N)N)cc5)c(O)ccc4cc23)cc1 | > 100 µM (inactive) | > 100 µM (inactive) | > 100 µM (inactive) | > 100 µM (inactive) | 50.8 µM (inactive) | – | 29 µM (inactive) | 26.6 µM (inactive) | 94.8 µM (inactive) | 51.6 µM (inactive) | 50 µM (inactive) | 87.9 µM (inactive) | 45.4 µM (inactive) | > 100 µM (inactive) | 40.7 µM (inactive) | 87.1 µM (inactive) | 53.1 µM (inactive) | 56 | > 100 µM (inactive) | > 100 µM (inactive) |
| O=C1C(/C=N/CCc2c[nH]c3ccccc23)C(C(F)(F)F)=NN1c1nc2ccccc2s1 (stereo not drawn) | 44.1 µM (inactive) | 36.5 µM (inactive) | 27.4 µM (inactive) | 24.8 µM (inactive) | 24 µM (inactive) | 20.3 µM (inactive) | 36.7 µM (inactive) | 31.6 µM (inactive) | 31.1 µM (inactive) | 18.3 µM (inactive) | 31.6 µM (inactive) | 23 µM (inactive) | 20.4 µM (inactive) | 37.2 µM (inactive) | 24.1 µM (inactive) | 38.9 µM (inactive) | 31.3 µM (inactive) | 29.9 | 37.6 µM (inactive) | – |
| Cn1[nH]nn/c1=N\N=C\c1ccccc1 | > 10 µM (inactive) | > 10 µM (inactive) | > 10 µM (inactive) | > 10 µM (inactive) | > 10 µM (inactive) | – | > 10 µM (inactive) | > 10 µM (inactive) | > 10 µM (inactive) | > 10 µM (inactive) | > 10 µM (inactive) | > 10 µM (inactive) | > 10 µM (inactive) | > 10 µM (inactive) | > 10 µM (inactive) | > 10 µM (inactive) | > 10 µM (inactive) | > 10 | > 10 µM (inactive) | > 10 µM (inactive) |
